Laboratory results published in US20240002393A1, “SUBSTITUTED BENZO[f][l ,2,4JTRIAZOL0[4,3-a][l ,4J[…] GABA A GAMMA! POSITIVE ALLOSTERIC MODULATORS” (Hoffmann-La Roche Inc., priority 2020, published 2024).

Experiments:
[1] = molecular target: human GABAA α5β2γ1 receptor (Homo sapiens (Human), UniProt P31644+Q8N1C3); assay: Radioligand binding assay, [3H]RO7239181 competition, γ1-containing GABAA subtypes; conditions: HEK293F membranes, mean of two determinations
Method: The affinity of compounds at GABAA γ1 subunit-containing receptors was measured by competition for [^3H]RO7239181 (67.3 Ci/mmol; Roche) binding to membranes from HEK293F cells (ThermoFisher R79007) expressing human (transiently transfected) receptors of composition α5β2γ1, α2β2γ1, α1β2γ1. For better protein expression of the α2 subunit-containing receptors, the 28 amino acid long signal peptide (Met1 to Ala28) of the human GABAA α2 subunit was substituted by the 31 amino acid long signal peptide (Met1 to Ser31) of human GABAA α5 subunit.
(§1) Harvested pellets from HEK293F cells expressing the different GABAA receptor subtypes were resuspended in Mannitol Buffer pH 7.2-7.4 (Mannitol 0.29M, Triethylamine 10 mM, Acetic acid 10 mM, EDTA 1 mM plus protease inhibitors (20 tablets Complete, Roche Diagnostics Cat. No. 05 056 489 001 per liter)), washed two times and then resuspended at 1:10 to 1:15 dilution in the same buffer. Cell disruption was performed by stirring the suspension in a Parr vessel #4637 at 435 psi for 15 minutes, and then the suspensions were centrifuged at 1000×g for 15 minutes at 4° C. (Beckman Avanti J-HC; rotor JS)-4.2). The supernatant (S1) was transferred in a 21 Schott flask and the pellet (P1) was resuspended with Mannitol Buffer up to 175 ml. The resuspended pellet was transferred into a 250 ml Corning centrifugal beaker and centrifuged at 1500×g for 10 minutes at 4° C. (Beckman Avanti J-HC; rotor JS)-4.2). The supernatant (S1) was then transferred in the 21 Schott flask and the pellet was discarded. The supernatants (S1) were centrifuged in 500 ml Beckman polypropylene centrifugal beaker at 15,000×g for 30 minutes at 4° C. (Beckman Avanti J-20 XP; rotor JLA-10.500). The pellet (P2) was resuspended with Mannitol Buffer 1:1 and frozen at −80° C. The supernatant (S2) was centrifuged in 100 ml Beckman polypropylene centrifugal tubes at 48000×g for 50 minutes at […] (Beckman Avanti J-20 XP; rotor JA-18). The supernatant (S3) was discarded and the pellet (P3) was resuspended with 1:1 Mannitol Buffer. The P2 and P3 protein concentration was determined with the BIORAD Standard assay method with bovine serum albumin as standard and measured on the NANO-Drop 1000. The membrane suspension was aliquots (500 μl per tube) and stored at −80° C. until required.
(§2) Membrane homogenates were resuspended and polytronised (Polytron PT1200E Kinematica AG) in Potassium Phosphate 10 mM, KCl 100 mM binding buffer at pH 7.4 to a final assay concentration determined with a previous experiment.
Radioligand binding assays were carried out in a volume of 200 µL (96-well plates) which contained 100 μL of cell membranes, [^3H]RO7239181 at a concentration of 1.5 nM (α5β2γ1) or 20-30 nM (α1β2γ1, 2β2γ1) and the test compound in the range of [0.3-10000]×10^−9 M. Nonspecific binding was defined by 10×10^−6 (α5β2γ1) and 30×10^−6 M RO7235136 and typically represented less than 5% (α5β2γ1) and less than 20% (α1β2γ1, α2β2γ1) of the total binding. Assays were incubated to equilibrium for 1 hour at 4° C. and then, membranes were filtered onto unifilter (96-well white microplate with bonded GF/C filters preincubated 20-50 minutes in 0.3% Polyethylenimine) with a Filtermate 196 harvester (Packard BioScience) and washed 4 times with cold Potassium Phosphate 10 mM pH 7.4, KCl 100 mM binding buffer. After drying, filter-retained radioactivity was detected by liquid scintillation counting. K, values were calculated using Excel-Fit (Microsoft) and are the means of two determinations.
Representative test results, obtained by the above described assay measuring binding affinity to HEK293 cells expressing human (h) receptors, are shown in the Table 1.

[2] = molecular target: human GABAA α1β3γ2 receptor (Homo sapiens (Human), UniProt P14867+P18507); assay: Radioligand binding assay, [3H]Flumazenil competition, γ2-containing GABAA subtypes; conditions: HEK293F membranes, [3H]Flumazenil 1 nM, mean of two determinations; read-out: Ki h-GABAA α1β3γ2
Method: The affinity of compounds at GABAA γ2 subunit-containing receptors was measured by competition for [^3H]Flumazenil (81.1 Ci/mmol; Roche) binding to HEK293F cells expressing human (transiently transfected) receptors of composition α1β3γ2.
Harvested pellets from HEK293F cells expressing the different GABAA γ2 receptor subtypes were resuspended in Mannitol Buffer pH 7.2-7.4 and processed as described above for the cells expressing the GABAA γ1 subunit-containing receptors.
Assays were incubated to equilibrium for 1 hour at 4° C. and harvested onto GF/C uni-filters (Packard) by filtration using a Packard harvester and washing with ice-cold wash buffer (50 mM Tris; pH 7.5). After drying, filter-retained radioactivity was detected by liquid scintillation counting. Ki values were calculated using Exel-Fit (Microsoft) and are the means of two determinations.

[3] = molecular target: human GABAA α1β2γ1 receptor (Homo sapiens (Human), UniProt P14867+Q8N1C3); assay: Radioligand binding assay, [3H]RO7239181 competition, γ1-containing GABAA subtypes; conditions: HEK293F membranes, [3H]RO7239181 20-30 nM, mean of two determinations
Method: (§3) The affinity of compounds at GABAA γ1 subunit-containing receptors was measured by competition for [^3H]RO7239181 (67.3 Ci/mmol; Roche) binding to membranes from HEK293F cells (ThermoFisher R79007) expressing human (transiently transfected) receptors of composition α5β2γ1, α2β2γ1, α1β2γ1.
as §1, §2
(§4) Assays were incubated to equilibrium for 1 hour at 4° C. and then, membranes were filtered onto unifilter (96-well white microplate with bonded GF/C filters preincubated 20-50 minutes in 0.3% Polyethylenimine) with a Filtermate 196 harvester (Packard BioScience) and washed 4 times with cold Potassium Phosphate 10 mM pH 7.4, KCl 100 mM binding buffer. After drying, filter-retained radioactivity was detected by liquid scintillation counting. K, values were calculated using Excel-Fit (Microsoft) and are the means of two determinations.

[4] = molecular target: human GABAA α2β2γ1 receptor (Homo sapiens (Human), UniProt P47869+Q8N1C3); assay: as above; conditions: for Ki: HEK293F membranes, [3H]RO7239181 20-30 nM, mean of two determinations, read-out: Ki h-GABAA α2β2γ1; for γ2/γ1 Selectivity Ratio: Ki α1β3γ2 (nM)/Ki α2β2γ1 (nM); for LogSel: Log[Ki α1β3γ2 (nM)/Ki α2β2γ1 (nM)]
Method: as §3, §1, §2, §4

Compound | Ki [1] [nM] | Ki [2] [nM] | Ki [3] [nM] | Ki [4] [nM] | γ2/γ1 Selectivity Ratio [4] | LogSel [4]
C[C@@H]1N=C(c2c(F)cccc2F)c2c(ccc(Cl)c2Cl)-n2c1n[nH]c2=O [Example 64, (4S)-7,8-dichloro-6-(2,6-difluorophenyl)-4-methyl-2,4-dihydro-[1,2,4]triazolo[4,3-a][1,4]benzodiazepin-1-one] | 0.5 | 602 | 11.5 | 13.2 | 45.8 | 1.66
C[C@@H]1N=C(c2ncccc2F)c2c(ccc(Cl)c2Cl)-n2c(-c3ccncn3)nnc21 [Example 66, (4S)-7,8-dichloro-6-(3-fluoro-2-pyridyl)-4-methyl-1-pyrimidin-4-yl-4H-[1,2,4]triazolo[4,3-a][1,4]benzodiazepine] | 8 | 3280 | 231 | 97.8 | 33.5 | 1.53
C[C@@H]1N=C(c2ncccc2F)c2c(ccc(Cl)c2Cl)-n2c(-c3cnn(C)c3)nnc21 [Example 67, (4S)-7,8-dichloro-6-(3-fluoro-2-pyridyl)-4-methyl-1-(1-methylpyrazol-4-yl)-4H-[1,2,4]triazolo[4,3-a][1,4]benzodiazepine] | 3.2 | 1420 | 188 | 26.5 | 53.5 | 1.73
C[C@@H]1N=C(c2ncccc2F)c2c(ccc(Cl)c2Cl)-n2c(C3CC3)nnc21 [Example 68, (4S)-7,8-dichloro-1-cyclopropyl-6-(3-fluoro-2-pyridyl)-4-methyl-4H-[1,2,4]triazolo[4,3-a][1,4]benzodiazepine] | 7 | 1060 | 359 | 38.8 | 27.4 | 1.44
C[C@@H]1N=C(c2c(F)cccc2F)c2c(ccc(Cl)c2Br)-n2c(-c3cccnn3)nnc21 [Example 73, (4S)-7-bromo-8-chloro-6-(2,6-difluorophenyl)-4-methyl-1-(pyridazin-3-yl)-4H-benzo[f][1,2,4]triazolo[4,3-a][1,4]diazepine] | 2 | 768 | 23.5 | 8.8 | 87.5 | 1.94
C[C@@H]1N=C(c2c(F)cccc2F)c2c(ccc(Cl)c2Br)-n2c(-c3ccncn3)nnc21 [Example 74, (4S)-7-bromo-8-chloro-6-(2,6-difluorophenyl)-4-methyl-1-pyrimidin-4-yl-4H-[1,2,4]triazolo[4,3-a][1,4]benzodiazepine] | 2.6 | 1870 | 28.3 | 17.3 | 107.6 | 2.03
Cc1nnc2n1-c1ccc(Br)c(Cl)c1C(c1c(F)cccc1F)=N[C@H]2C [Example 75, (4S)-8-bromo-7-chloro-6-(2,6-difluorophenyl)-1,4-dimethyl-4H-[1,2,4]triazolo[4,3-a][1,4]benzodiazepine] | 0.8 | 202 | 8.3 | 5.3 | 38.0 | 1.58
C[C@@H]1N=C(c2c(F)cccc2F)c2c(ccc(Cl)c2Br)-n2c(-c3cnn(C)c3)nnc21 [Example 76, (4S)-7-bromo-8-chloro-6-(2,6-difluorophenyl)-4-methyl-1-(1-methylpyrazol-4-yl)-4H-[1,2,4]triazolo[4,3-a][1,4]benzodiazepine] | 3.6 | 530 | 44.6 | 24.9 | 21.3 | 1.33
Cc1nnc2n1-c1ccc(Cl)c(Br)c1C(c1c(F)cccc1F)=N[C@H]2C [Example 80, (4S)-7-bromo-8-chloro-6-(2,6-difluorophenyl)-1,4-dimethyl-4H-[1,2,4]triazolo[4,3-a][1,4]benzodiazepine] | 3 | 1070 | 42.6 | 23.6 | 45.3 | 1.66
C[C@@H]1N=C(c2c(F)cccc2F)c2c(ccc(Cl)c2Br)-n2c(-c3ccn(C)n3)nnc21 [Example 81, (4S)-7-bromo-8-chloro-6-(2,6-difluorophenyl)-4-methyl-1-(1-methylpyrazol-3-yl)-4H-[1,2,4]triazolo[4,3-a][1,4]benzodiazepine] | 4.3 | 1560 | 101 | 36.3 | 43.0 | 1.63
Cc1nnc2n1-c1ccc(Cl)c(Cl)c1C(c1c(F)cccc1F)=N[C@H]2C [Example 82, (4S)-7,8-dichloro-6-(2,6-difluorophenyl)-1,4-dimethyl-4H-[1,2,4]triazolo[4,3-a][1,4]benzodiazepine] | 0.6 | 261 | 12.8 | 10.6 | 24.6 | 1.39
C[C@@H]1N=C(c2ncccc2F)c2c(ccc(Br)c2Cl)-n2c(C3CC3)nnc21 [Example 83, (4S)-8-bromo-7-chloro-1-cyclopropyl-6-(3-fluoro-2-pyridyl)-4-methyl-4H-[1,2,4]triazolo[4,3-a][1,4]benzodiazepine] | 2.7 | 853 | 128 | 23.2 | 36.8 | 1.57
C[C@@H]1N=C(c2ncccc2F)c2c(ccc(Br)c2Cl)-n2cnnc21 [Example 84, (4S)-8-bromo-7-chloro-6-(3-fluoro-2-pyridyl)-4-methyl-4H-[1,2,4]triazolo[4,3-a][1,4]benzodiazepine] | 6.5 | 1210 | 97.1 | 71.3 | 16.9 | 1.23
